Values joined by “and” are separate entries in the source; they are usually repeats but may differ in a detail not shown here. Identical values can stand only once. Toxic doses and inconclusive results are not listed. Cut-off read from the data, not from the text of the source: active = T/C of 150% or more; inactive = T/C below 125%.
Test system: L1210 leukemia ip in BDF1 mice, survival T/C
Experiment: NCI In Vivo Anticancer Drug Screen. Data for tumor model L1210 Leukemia (intraperitoneal) in B6D2F1 (BDF1) mice
Conditions: endpoint: mean survival time, higher = longer survival
How it was run: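 Ratio derived from survival: compound-dosed mice over vehicle-dosed mice, all bearing a transplantable tumor.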

[1] = dose: 100.0 mg/kg/injection, schedule: Q01DX009 (ip), vehicle: saline with Tween-80
[2] = dose: 200.0 mg/kg/injection, schedule: Q01DX009 (ip), vehicle: saline with Tween-80
[3] = dose: 400.0 mg/kg/injection, schedule: Q01DX009 (ip), vehicle: saline with Tween-80
[4] = dose: 100.0 mg/kg/injection, schedule: Q01DX009 (ip), vehicle: saline
[5] = dose: 200.0 mg/kg/injection, schedule: Q01DX009 (ip), vehicle: saline
[6] = dose: 100.0 mg/kg/injection, schedule: Q04DX003 (ip), vehicle: Klucel (hydroxypropylcellulose) (HPC)
[7] = dose: 200.0 mg/kg/injection, schedule: Q04DX003 (ip), vehicle: Klucel (hydroxypropylcellulose) (HPC)
[8] = dose: 400.0 mg/kg/injection, schedule: Q04DX003 (ip), vehicle: Klucel (hydroxypropylcellulose) (HPC)
[9] = dose: 100.0 mg/kg/injection, schedule: Q04DX003 (ip), vehicle: saline with Tween-80
[10] = dose: 200.0 mg/kg/injection, schedule: Q04DX003 (ip), vehicle: saline with Tween-80
[11] = dose: 400.0 mg/kg/injection, schedule: Q04DX003 (ip), vehicle: saline with Tween-80
[12] = dose: 100.0 mg/kg/injection, schedule: Q01DX009 (ip), vehicle: Klucel (hydroxypropylcellulose) (HPC)
[13] = dose: 200.0 mg/kg/injection, schedule: Q01DX009 (ip), vehicle: Klucel (hydroxypropylcellulose) (HPC)
[14] = dose: 400.0 mg/kg/injection, schedule: Q01DX009 (ip), vehicle: Klucel (hydroxypropylcellulose) (HPC)
[15] = dose: 100.0 mg/kg/injection, schedule: Q01DX001 (ip), vehicle: carboxymethylcellulose (CMC)
[16] = dose: 200.0 mg/kg/injection, schedule: Q01DX001 (ip), vehicle: carboxymethylcellulose (CMC)
[17] = dose: 400.0 mg/kg/injection, schedule: Q01DX001 (ip), vehicle: carboxymethylcellulose (CMC)

Measured: T/C

CCc1c(Cl)c(C)cc(O)c1Cl
inactive: dose: 25.0 mg/kg/injection, schedule: Q01DX009 (ip), vehicle: gum acacia 98 % of control | dose: 25.0 mg/kg/injection, schedule: Q04DX003 (ip), vehicle: gum acacia 100 % of control | dose: 50.0 mg/kg/injection, schedule: Q01DX009 (ip), vehicle: gum acacia 98 % of control | dose: 50.0 mg/kg/injection, schedule: Q04DX003 (ip), vehicle: gum acacia 90 % of control | dose: 100.0 mg/kg/injection, schedule: Q04DX003 (ip), vehicle: gum acacia 96 % of control

COc1c(C)c(C)c(OC)c(Br)c1C
inactive: dose: 100.0 mg/kg/injection, schedule: Q01DX001 (ip), vehicle: saline with Tween-80 98 % of control | [1] 95 % of control | dose: 200.0 mg/kg/injection, schedule: Q01DX001 (ip), vehicle: saline with Tween-80 102 % of control | [2] 98 % of control | dose: 400.0 mg/kg/injection, schedule: Q01DX001 (ip), vehicle: saline with Tween-80 98 % of control | [3] 106 % of control

O=S(=O)(C/C=C/CC(Cl)(Cl)Cl)C/C=C/CC(Cl)(Cl)Cl
inactive: dose: 100.0 mg/kg/injection, schedule: Q01DX001 (ip), vehicle: acetone 95 % of control | [4] 90 % of control | dose: 100.0 mg/kg/injection, schedule: Q04DX003 (ip), vehicle: acetone 97 % of control | dose: 200.0 mg/kg/injection, schedule: Q01DX001 (ip), vehicle: acetone 94 % of control | [5] 93 % of control | dose: 200.0 mg/kg/injection, schedule: Q04DX003 (ip), vehicle: acetone 95 % of control | dose: 400.0 mg/kg/injection, schedule: Q01DX001 (ip), vehicle: acetone 89 % of control | dose: 400.0 mg/kg/injection, schedule: Q01DX009 (ip), vehicle: saline 92 % of control | dose: 400.0 mg/kg/injection, schedule: Q04DX003 (ip), vehicle: acetone 95 % of control

CC1OC(O[C@@H]2C=C3CC[C@@H]4[C@H](CC[C@]5(C)[C@@H](c6ccc(=O)oc6)CC[C@]45O)[C@@]3(C)CC2)C(O)C(OC2OC(CO)C(O)C(O)C2O)C1O (stereo partly drawn)
inactive: dose: 1.0 mg/kg/injection, schedule: Q01DX015 (sc), vehicle: steriod suspending solution 95 % of control | dose: 2.0 mg/kg/injection, schedule: Q01DX015 (sc), vehicle: steriod suspending solution 98 % of control | dose: 4.0 mg/kg/injection, schedule: Q01DX015 (sc), vehicle: steriod suspending solution 96 % of control | dose: 5.0 mg/kg/injection, schedule: Q01DX001 (ip), vehicle: saline 95 % of control | dose: 8.0 mg/kg/injection, schedule: Q01DX015 (sc), vehicle: steriod suspending solution 97 % of control | dose: 10.0 mg/kg/injection, schedule: Q01DX001 (ip), vehicle: saline 106 % of control | dose: 16.0 mg/kg/injection, schedule: Q01DX015 (sc), vehicle: steriod suspending solution 103 % of control | dose: 20.0 mg/kg/injection, schedule: Q01DX001 (ip), vehicle: saline 97 % of control | dose: 32.0 mg/kg/injection, schedule: Q01DX015 (sc), vehicle: steriod suspending solution 100 % of control

CC(=O)CC(=O)c1cc(C(C)=O)c(O)c(C(C)=O)c1
inactive: dose: 50.0 mg/kg/injection, schedule: Q04DX003 (ip), vehicle: Klucel (hydroxypropylcellulose) (HPC) 101 % of control | [6] 108 % of control | [7] 103 % of control | [8] 101 % of control

COCC(=O)C(C(C)=O)C(c1ccc(N(C)C)cc1)C(C(C)=O)C(=O)COC (stereo not drawn)
inactive: [9] 98 % of control | [10] 89 % of control | [11] 91 % of control

CC(=O)OCC(CCn1ccc(=O)[nH]c1=O)COC(C)=O
inactive: [1] 93 % of control | [9] 100 % of control | [2] 95 % of control | [10] 105 % of control | [3] 100 % of control | [11] 106 % of control

C=CCCCCCCCCC(=O)NCC1CC1
inactive: [9] 98 % of control | [10] 92 % of control | [11] 88 % of control

C[Si](C)(C)Oc1c(Cl)cc(Cl)cc1Cl
inactive: [9] 102 % of control | [10] 98 % of control | [11] 91 % of control

O=C1CC(Sc2ccccc2)C(=O)N1c1ccccc1 (stereo not drawn)
inactive: [12] 104 % of control | [13] 100 % of control | [14] 107 % of control

COC(=O)n1nc2ccccc2c1N
inactive: dose: 50.0 mg/kg/injection, schedule: Q01DX009 (ip), vehicle: saline 96 % of control | [4] 96 % of control | [5] 93 % of control

c1ccc(C2OCC3OC(c4ccccc4)OC(C4SCCS4)C3O2)cc1 (stereo not drawn)
inactive: dose: 100.0 mg/kg/injection, schedule: Q01DX001 (ip), vehicle: gum acacia 92 % of control | dose: 200.0 mg/kg/injection, schedule: Q01DX001 (ip), vehicle: gum acacia 93 % of control | dose: 400.0 mg/kg/injection, schedule: Q01DX001 (ip), vehicle: gum acacia 93 % of control

CCCCSc1cc(C)nc2ccccc12
inactive: dose: 25.0 mg/kg/injection, schedule: Q01DX009 (ip), vehicle: saline with Tween-80 100 % of control | dose: 25.0 mg/kg/injection, schedule: Q04DX002 (ip), vehicle: saline with Tween-80 93 % of control | dose: 50.0 mg/kg/injection, schedule: Q01DX009 (ip), vehicle: saline with Tween-80 96 % of control | dose: 50.0 mg/kg/injection, schedule: Q04DX002 (ip), vehicle: saline with Tween-80 96 % of control | [1] 93 % of control | dose: 100.0 mg/kg/injection, schedule: Q04DX002 (ip), vehicle: saline with Tween-80 93 % of control

O=C(Nc1ccccc1)C1C2C=CC(C2)C1C(=O)Nc1ccccc1 (stereo not drawn)
inactive: [9] 93 % of control and 103 % of control | [10] 95 % of control and 87 % of control | [11] 91 % of control

Cc1cc(N(CCCl)CCCl)ccc1C=Nc1ccc(C(=O)O)c(O)c1
inactive: [15] 111 % of control | [16] 95 % of control

CN1/C(=C/C=N/NC(N)=S)C(C)(C)c2ccccc21
inactive: [15] 102 % of control | [16] 98 % of control | [17] 98 % of control

Cc1ccccc1CC1(Br)CC(C)(C)c2ccccc2C1=O (stereo not drawn)
inactive: [6] 93 % of control | [7] 106 % of control | [8] 88 % of control

CC1CCC2(OC1)OC1C(O)C3C4CCC5CC(OC6OC(CO)C(OC7OC(CO)C(O)C(OC8OCC(O)C(O)C8O)C7OC7OC(CO)C(O)C(OC8OC(CO)C(O)C(O)C8O)C7O)C(O)C6O)C(O)CC5(C)C4CCC3(C)C1C2C (stereo not drawn)
inactive: dose: 25.0 mg/kg/injection, schedule: Q01DX001 (ip), vehicle: saline with Tween-80 93 % of control

CCOC(=O)c1[nH]c2ccccc2c1CN(CC)CC
inactive: dose: 75.0 mg/kg/injection, schedule: Q01DX001 (ip), vehicle: carboxymethylcellulose (CMC) 94 % of control

Cc1c(C(C)(C)C)cc(C(C)(C)C)c(O)c1[N+](=O)[O-]
inactive: [15] 93 % of control and 95 % of control | dose: 100.0 mg/kg/injection, schedule: Q04DX002 (ip), vehicle: carboxymethylcellulose (CMC) 90 % of control and 91 % of control | dose: 100.0 mg/kg/injection, schedule: Q04DX003 (ip), vehicle: carboxymethylcellulose (CMC) 97 % of control and 98 % of control | [16] 95 % of control and 99 % of control and 111 % of control | dose: 200.0 mg/kg/injection, schedule: Q04DX002 (ip), vehicle: carboxymethylcellulose (CMC) 87 % of control and 89 % of control | dose: 200.0 mg/kg/injection, schedule: Q04DX003 (ip), vehicle: carboxymethylcellulose (CMC) 96 % of control and 90 % of control | [17] 94 % of control and 101 % of control and 105 % of control | dose: 400.0 mg/kg/injection, schedule: Q04DX002 (ip), vehicle: carboxymethylcellulose (CMC) 96 % of control and 111 % of control | dose: 400.0 mg/kg/injection, schedule: Q04DX003 (ip), vehicle: carboxymethylcellulose (CMC) 96 % of control and 87 % of control

Cc1c(NC(=O)Nc2ccc(F)c([N+](=O)[O-])c2)c(=O)n(-c2ccccc2)n1C
inactive: [12] 102 % of control | [13] 96 % of control | [14] 103 % of control

CC1(NCCOC(=O)c2ccc(N)cc2)CCCCC1
inactive: dose: 75.0 mg/kg/injection, schedule: Q01DX001 (ip), vehicle: saline 100 % of control | dose: 150.0 mg/kg/injection, schedule: Q01DX001 (ip), vehicle: saline 100 % of control

COc1cc([N+](=O)[O-])ccc1NC(=O)N(Cc1ccccc1)c1ccccc1
inactive: [12] 98 % of control | [13] 93 % of control | [14] 91 % of control
